Test results as given in publication PMC6008465 (British Journal of Cancer, 2018).
Marks after values point to notes of the source that are not given here.

How the values were obtained:
advanced solid tumours = assay: Part A tumour response (RECIST 1.0); format: in vivo, human
Description: The primary objectives of this phase 1 study were to evaluate the safety, tolerability, and MTD of once-weekly (Schedule I) and twice-weekly (Schedule II) dosing. […] Toxicity was managed by dose interruption, reduction, and/or discontinuation. Only Cycle 1 adverse events (AEs) were evaluable as DLTs. […] All ongoing patients could continue at 320 mg/m^2, regardless of initial starting dose.
(§1) Efficacy was assessed by tumour response determined by investigator review of computed tomography/magnetic resonance imaging scans using Response Evaluation Criteria in Solid tumours version 1.0 (RECIST).[17]

[1] = test system: metastatic BRAF-mutated or WT melanoma; assay: Part B tumour response (RECIST 1.0); format: in vivo, human; conditions: for Duration of SD: one patient; for Median (95% CI) duration of PFS / Median (95% CI) duration of SD: Kaplan-Meier estimate
Description: In Part B, an adaptive study design was planned to define an optimal dosing schedule. […] One dose escalation (from 160 mg/m^2 to 320 mg/m^2) was allowed in Schedule II for MTD determination. […] Toxicity was managed as before. Up to 30 patients with BRAF-mutated melanoma and up to 29 patients with BRAF-WT melanoma were to be enrolled in Schedule I. Up to 30 patients were to be enrolled into Schedule II once the MTD was confirmed.
as §1

MEK1 = conditions: preclinical models; cited from earlier work
[2] = test system: patients with advanced solid tumours, including melanoma; assay: Phase 1 study overall (Parts A and B): safety; format: in vivo, human
Description: Safety was assessed by monitoring AEs, serious AEs (SAEs), laboratory parameters, vital signs, 12-lead electrocardiograms (ECGs), Eastern Cooperative Oncology Group performance status, and symptom-directed physical and neurologic examination findings. AEs were graded by investigators based on the National Cancer Institute Common Terminology Criteria for Adverse Events, version 3.[16]

IL-8 = test system: IL-8; parameters: IC50 for inhibition of spontaneous secretion of IL-8: unit not given here; conditions: quoted in discussion, no reference given, cited from earlier work
IL-6 = conditions: quoted in discussion, no reference given, cited from earlier work
cyclin D1 = conditions: quoted in discussion, no reference given, cited from earlier work
[3] = Part B, BRAF-WT 320 mg/m^2 once weekly (n=7)
[4] = Part B, BRAF-mutated 160 mg/m^2 twice weekly (n=3)
[5] = Part B, BRAF-mutated 320 mg/m^2 once weekly (n=20)

## CCNc1cc(O)c2c(c1)/C=C/C[C@H](O)[C@H](O)C(=O)/C=C\[C@@H](C)[C@H](C)OC2=O [E6201, (3S,4R,5Z,8S,9S,11E)-14-(ethylamino)-8,9,16-trihydroxy-3,4-dimethyl-3,4,9,19-tetrahydro-1H-2-benzoxacyclotetradecine-1,7 (8H)-dione]
Advanced solid tumours; V600E BRAF-mutated papillary thyroid cancer, 480 mg/m^2 qw
  Number of partial responses (PR): One
Advanced solid tumours; five patients
  Patients with SD for ≥4 cycles (3.7 months): 20.0%
[1]; Part B, BRAF-WT
  Patients with PR / patients: 1/7
  Patients with SD / patients: 1/7
[1]; [3]
  Complete response (CR): 0 n (%)
  Disease control rate (CR+PR+SD): 2 (28.6) n (%)
  Not evaluable (NE): 1 (14.3) n (%)
  Overall response rate (CR+PR): 1 (14.3) n (%)
  Partial response (PR): 1 (14.3)^b n (%)
  Progressive disease (PD): 2 (28.6) n (%)
[1]; Part B, BRAF-WT 320 mg/m^2 once weekly
  Duration of SD: 4 cycles
[1]; Part B, BRAF-WT melanoma (2/7)
  Disease control rate (DCR; complete response + PR + SD): 28.6%
[1]; [4]
  Complete response (CR): 0 n (%)
  Disease control rate (CR+PR+SD): 1 (33.3) n (%)
  Not evaluable (NE): 0 n (%)
  Overall response rate (CR+PR): 0 n (%)
  Partial response (PR): 0 n (%)
  Progressive disease (PD): 1 (33.3) n (%)
  Median (95% CI) duration of PFS: 83.5 (29.0–138.0) days
  Median (95% CI) duration of SD: 138.0 (29.0–138.0) days
[1]; Part B, BRAF-mutated 160 mg/m^2 twice weekly
  Duration of SD: > 4 cycles
[1]; Part B, BRAF-mutated 320 mg/m^2 once weekly
  Patients with SD for ≥4 cycles: 5 patients
[1]; [5]
  Complete response (CR): 0 n (%)
  Disease control rate (CR+PR+SD): 9 (45.0) n (%)
  Not evaluable (NE): 1 (5.0) n (%)
  Overall response rate (CR+PR): 2 (10.0) n (%)
  Partial response (PR): 2 (10.0)^a n (%)
  Progressive disease (PD): 6 (30.0) n (%)
  Median (95% CI) duration of PFS: 73.0 (26.0–166.0) days
  Median (95% CI) duration of SD: 73.0 (29.0–166.0) days
[1]; Part B, BRAF-mutated melanoma
  Patients with PR / patients: 2/23
  Patients with SD / patients: 8/23
[1]; Part B, BRAF-mutated melanoma (10/23)
  Disease control rate (DCR; complete response + PR + SD): 43.5%
[1]; Part B, Total (N=30)
  Complete response (CR): 0 n (%)
  Disease control rate (CR+PR+SD): 12 (40.0) n (%)
  Not evaluable (NE): 2 (6.7) n (%)
  Overall response rate (CR+PR): 3 (10.0) n (%)
  Partial response (PR): 3 (10.0) n (%)
  Progressive disease (PD): 9 (30.0) n (%)
[1]; Part B, all
  Number of partial responses (PR): three
[1]; Part B, all groups
  Patients with SD for ≥4 cycles (3.7 months): seven
[1]; Part B, BRAF-WT melanoma, 320 mg/m^2 once-weekly
  Number of partial responses (PR): 1
[1]; Part B, V600E BRAF-mutated melanoma, 320 mg/m^2 once-weekly
  Number of partial responses (PR): 2
[1]; one patient with BRAF-mutated melanoma who achieved a PR
  Response of brain metastases: brain metastases that responded to treatment
MEK1
  Time after dosing at which MEK1 inhibition occurred: 8 h
  Time postdose for which MEK1 inhibition was sustained: 72 h
[2]; Parts A and B
  Patients who died during the study: Four
[2]; during the study
  AEs of cardiomyopathy: no reported AEs of cardiomyopathy
  New skin cancers: No new skin cancers were reported
IL-8
  IC50 for inhibition of spontaneous secretion of IL-8: 8.19
IL-8; read-out: IC50 for inhibition of spontaneous secretion of IL-8
  IC50: 21.8 nM
IL-6
  IC50 for inhibition of spontaneous secretion of IL-6: 4.09 ng/mL
IL-6; read-out: IC50 for inhibition of spontaneous secretion of IL-6
  IC50: 10.5 nM
Cyclin D1
  IC50 for inhibition of cyclin D1: 1.87 ng/mL
Cyclin D1; read-out: IC50 for inhibition of cyclin D1
  IC50: 4.8 nM
